Data taken from patent US10696731B2, “Oligopeptide-free cell culture media” (Baxalta GmbH, priority 2006, dated 2020).

Assays:
GD8/6 cells [1] = assay: Small scale spinner flask culture of GD8/6 cells in BAV-medium: FVIII productivity and growth rate; conditions: added to BAV-medium, range 0-18 mg/L; spinner flasks 200 ml
Protocol: Cell counts from suspension cells or immobilized cells were determined either by counting with a CASY® cell counter as described by Scharfe et al., Biotechnologie in LaborPraxis 10: 1096-1103 (1988), or by citric acid extraction and fluorescent staining of the nuclei followed by counting with a NucleoCounter® (Chemometec, DK). The specific growth rate (p) is calculated from the increase of the cell densities(Xt) and/or the dilution rate (D) of the steady state of chemostat cultures of suspensions cells over a certain time interval (t): μ=D+ln(Xt/XO)/t
The activity of Factor VIII (FVIII) (cf. FIGS. 1 to 5) was measured by a chromogenic assay (Chromogenic, Sweden).
The cell specific productivity (qp) is defined as the specific amount of produced protein (U or μg) per number of cells per day.
Small scale experiments with GD8/6 cells in suspension culture were carried out in Techne spinner flasks at 200 ml working volume in batch refeed mode at 37° C., without pH and pO2 control.

GD8/6 cells [2] = assay: FVIII expression and growth of GD8/6 cells in 10 L chemostat culture with BAV-medium; type: cell-based
Protocol: The volumetric productivity (QP) is calculated from the amount of activity units yielded per liter reactor volume per day (U/L/d) in the production system.
Cell cultures of recombinant mammalian cells (e.g., CHO-cells stably expressing Factor VIII, such as GD8/6 cells) were grown in suspension in a chemostat culture in 10 l bioreactors. The culture conditions of 37° C., oxygen saturation 20%, and pH 7.0 to 7.1 were kept constant. The cultures were supplied with a constant feed of BAV-medium.

[3] = 2 mg/L plus additional supplementation with Fe (II) and Cu (II)

Q: How did the “ability to substitute putrescine (FVIII productivity and growth)” value (“ability to substitute putrescine” for short) (GD8/6 cells [1]) turn out when `NCCO` [ethanolamine, reference compound] was run?
A: The value was “could neither replace putrescine in any concentration investigated”.

Q: How did the “ability to substitute putrescine” value (GD8/6 cells [1]) turn out when `NCCC[C@H](N)C(=O)O` [Ornithine] was run?
A: Its value is “could partially substitute putrescine in a concentration-dependent manner”.

Q: Which “ability to substitute putrescine” value (GD8/6 cells [1]) does the source give for `NCCCNCCCCNCCCN` [spermine] here?
A: The value was “could also substitute putrescine in a concentration-dependent manner”.

Q: Which volumetric productivity (GD8/6 cells [2]; 2 mg/L plus Fe (II) and Cu (II), after a further increase of the cell density) does the source give for `NCCCCN` [Putrescine.2HCl] here?
A: Its volumetric productivity is “over 3000 U/L/D”.

Q: And the cell specific productivity (GD8/6 cells [2]; [3])?
A: The cell specific productivity was “over 1700 mU/10E06 cells/day”.

Q: And the specific growth rate (GD8/6 cells [2]; [3])?
A: The specific growth rate was “approximately 0.60 d^−1”.

Q: And the volumetric productivity (GD8/6 cells [2]; [3])?
A: The volumetric productivity was “over 2685 U/L/D”.

Q: What about the “increase of volumetric FVIII-expression” value (GD8/6 cells [2]; addition of 2 mg/L after 11 days of continuous feed of BAV-medium, 10 L bioreactor) of the same compound?
A: The value was 800%.

Q: And the “FVIII expression (volumetric productivity)” value (GD8/6 cells [2]; addition of 2 mg/L, BAV-medium without it averaged 271 U/L/D)?
A: Its value is 870 U/L/D.
